Assay: excess molar enthalpy (molar enthalpy of mixing); xn = mol fraction of the nth substance listed
Conditions: 298.15 K, 101 kPa, Liquid, Calvet calorimetry

CCCCCCCC[n+]1ccn(C)c1.F[B-](F)(F)F [1-methyl-3-octylimidazolium tetrafluoroborate] + CCO
Conditions	excess molar enthalpy [kcal/mol]
x1 = 0.135	0.382
x1 = 0.137	0.386
x1 = 0.14	0.391
x1 = 0.143	0.396
x1 = 0.146	0.401
x1 = 0.149	0.406
x1 = 0.152	0.411
x1 = 0.155	0.415
x1 = 0.159	0.421
x1 = 0.162	0.426
x1 = 0.166	0.431
x1 = 0.17	0.437
x1 = 0.174	0.442
x1 = 0.178	0.448
x1 = 0.183	0.454
x1 = 0.188	0.46
x1 = 0.193	0.466
x1 = 0.198	0.472
x1 = 0.204	0.479
x1 = 0.209	0.486
x1 = 0.216	0.494
x1 = 0.222	0.502
x1 = 0.23	0.51
x1 = 0.237	0.519
x1 = 0.242	0.527
x1 = 0.247	0.534
x1 = 0.253	0.542
x1 = 0.259	0.55
x1 = 0.264	0.557
x1 = 0.271	0.565
x1 = 0.277	0.572
x1 = 0.284	0.579
x1 = 0.291	0.586
x1 = 0.299	0.592
x1 = 0.307	0.598
x1 = 0.315	0.603
x1 = 0.324	0.608
x1 = 0.334	0.611
x1 = 0.344	0.614
x1 = 0.354	0.617
x1 = 0.365	0.619
x1 = 0.377	0.621
x1 = 0.39	0.622
x1 = 0.404	0.622
x1 = 0.419	0.621
x1 = 0.435	0.619
x1 = 0.452	0.614
x1 = 0.47	0.608
x1 = 0.49	0.601
x1 = 0.499	0.597
x1 = 0.507	0.593
x1 = 0.517	0.588
x1 = 0.526	0.583
x1 = 0.536	0.577
x1 = 0.546	0.57
x1 = 0.556	0.563
x1 = 0.567	0.555
x1 = 0.579	0.546
x1 = 0.591	0.537
x1 = 0.603	0.526
x1 = 0.616	0.515
x1 = 0.629	0.503
x1 = 0.643	0.489
x1 = 0.658	0.475
x1 = 0.673	0.458
x1 = 0.689	0.441
x1 = 0.706	0.422
x1 = 0.724	0.401
x1 = 0.743	0.379
x1 = 0.762	0.354
x1 = 0.783	0.327
x1 = 0.805	0.297
x1 = 0.828	0.266
x1 = 0.852	0.23
x1 = 0.878	0.193
x1 = 0.906	0.15
x1 = 0.935	0.106
x1 = 0.966	0.0557

CCCCCCCC[n+]1ccn(C)c1.F[B-](F)(F)F [1-methyl-3-octylimidazolium tetrafluoroborate] + CC(C)O
Conditions	excess molar enthalpy [kcal/mol]
x1 = 0.139	0.337
x1 = 0.142	0.342
x1 = 0.144	0.348
x1 = 0.148	0.354
x1 = 0.151	0.36
x1 = 0.154	0.366
x1 = 0.158	0.373
x1 = 0.162	0.379
x1 = 0.165	0.386
x1 = 0.17	0.392
x1 = 0.173	0.397
x1 = 0.176	0.402
x1 = 0.179	0.406
x1 = 0.183	0.412
x1 = 0.186	0.417
x1 = 0.19	0.422
x1 = 0.194	0.428
x1 = 0.198	0.433
x1 = 0.202	0.439
x1 = 0.207	0.445
x1 = 0.212	0.452
x1 = 0.216	0.459
x1 = 0.221	0.467
x1 = 0.227	0.475
x1 = 0.232	0.484
x1 = 0.238	0.493
x1 = 0.244	0.502
x1 = 0.251	0.511
x1 = 0.258	0.528
x1 = 0.265	0.54
x1 = 0.273	0.552
x1 = 0.281	0.565
x1 = 0.29	0.578
x1 = 0.295	0.587
x1 = 0.301	0.597
x1 = 0.307	0.606
x1 = 0.314	0.614
x1 = 0.32	0.624
x1 = 0.327	0.633
x1 = 0.335	0.641
x1 = 0.342	0.65
x1 = 0.35	0.658
x1 = 0.359	0.665
x1 = 0.367	0.672
x1 = 0.377	0.677
x1 = 0.386	0.681
x1 = 0.396	0.683
x1 = 0.407	0.684
x1 = 0.418	0.683
x1 = 0.43	0.682
x1 = 0.443	0.68
x1 = 0.456	0.677
x1 = 0.471	0.672
x1 = 0.486	0.666
x1 = 0.502	0.659
x1 = 0.519	0.65
x1 = 0.538	0.638
x1 = 0.558	0.625
x1 = 0.566	0.619
x1 = 0.575	0.612
x1 = 0.584	0.604
x1 = 0.593	0.596
x1 = 0.602	0.587
x1 = 0.612	0.578
x1 = 0.622	0.567
x1 = 0.632	0.557
x1 = 0.643	0.545
x1 = 0.654	0.533
x1 = 0.666	0.52
x1 = 0.678	0.506
x1 = 0.69	0.491
x1 = 0.703	0.476
x1 = 0.716	0.459
x1 = 0.73	0.441
x1 = 0.744	0.421
x1 = 0.759	0.401
x1 = 0.775	0.378
x1 = 0.791	0.354
x1 = 0.808	0.329
x1 = 0.825	0.301
x1 = 0.844	0.273
x1 = 0.863	0.241
x1 = 0.883	0.208
x1 = 0.904	0.171
x1 = 0.927	0.134
x1 = 0.95	0.0913
x1 = 0.974	0.048

CCCCCCCC[n+]1ccn(C)c1.F[B-](F)(F)F [1-methyl-3-octylimidazolium tetrafluoroborate] + CCCCO
Conditions	excess molar enthalpy [kcal/mol]
x1 = 0.191	0.349
x1 = 0.195	0.355
x1 = 0.2	0.362
x1 = 0.204	0.369
x1 = 0.209	0.376
x1 = 0.214	0.384
x1 = 0.219	0.391
x1 = 0.223	0.397
x1 = 0.228	0.402
x1 = 0.233	0.407
x1 = 0.238	0.413
x1 = 0.243	0.419
x1 = 0.248	0.425
x1 = 0.254	0.431
x1 = 0.259	0.438
x1 = 0.266	0.446
x1 = 0.272	0.453
x1 = 0.279	0.461
x1 = 0.286	0.469
x1 = 0.293	0.48
x1 = 0.301	0.492
x1 = 0.309	0.504
x1 = 0.318	0.516
x1 = 0.328	0.528
x1 = 0.337	0.541
x1 = 0.348	0.554
x1 = 0.359	0.566
x1 = 0.371	0.577
x1 = 0.383	0.586
x1 = 0.392	0.593
x1 = 0.4	0.599
x1 = 0.41	0.605
x1 = 0.419	0.608
x1 = 0.429	0.611
x1 = 0.44	0.611
x1 = 0.451	0.611
x1 = 0.462	0.608
x1 = 0.474	0.605
x1 = 0.487	0.6
x1 = 0.501	0.596
x1 = 0.515	0.589
x1 = 0.53	0.582
x1 = 0.546	0.571
x1 = 0.563	0.56
x1 = 0.582	0.545
x1 = 0.601	0.531
x1 = 0.622	0.511
x1 = 0.644	0.49
x1 = 0.653	0.482
x1 = 0.663	0.474
x1 = 0.673	0.464
x1 = 0.683	0.455
x1 = 0.693	0.443
x1 = 0.704	0.429
x1 = 0.715	0.417
x1 = 0.727	0.405
x1 = 0.739	0.392
x1 = 0.751	0.378
x1 = 0.764	0.363
x1 = 0.777	0.348
x1 = 0.79	0.331
x1 = 0.804	0.313
x1 = 0.819	0.294
x1 = 0.834	0.275
x1 = 0.85	0.254
x1 = 0.866	0.231
x1 = 0.883	0.208
x1 = 0.9	0.18
x1 = 0.919	0.149
x1 = 0.938	0.114
x1 = 0.958	0.0796
x1 = 0.978	0.0411

— the NIST ThermoML archive (doi:10.1021/je400709f)
